The target in one test is Sigma-2. Kind of test: Sigma-2 Ki determination (NIMH-PDSP). It counts as binding. Conditions: standard drug haloperidol. On the procedure:
(§1) The compounds from the above Examples were tested for Sigma-1 and Sigma-2 activity. Ki determinations were generously provided by the National Institute of Mental Health's Psychoactive Drug Screening Program (PDSP), Contract #HHSN-272-2013-000017-C(NIMH-PDSP). The NIMH-PDSP is directed by Bryan L Roth MD, PhD at the University of North Carolina at Chapel Hill, N.C. and Project Officer Jamie Driscoll at NIMH, Bethesda, Md., USA. Procedures employed by the PDSP as described in the NIMH-PDSP Assay Protocol Book, Version II. The standard drug used in both Sigma subtype assays is haloperidol.

A further test has as its target Sigma-1. As to the kind of experiment: Sigma-1 Ki determination (NIMH-PDSP). It counts as binding. To be noted: standard drug haloperidol. On the procedure: as §1

Broadly, the Ki is the dissociation constant of the complex between target and ligand, obtained from inhibition or displacement. Lower therefore signals higher affinity.

Each structure is given as a SMILES string. Where a name gives a salt, the structure may show the parent alone.

For the molecule `CN[C@]1(c2ccccc2Cl)CCCC[C@@H]1NCCCN1CCCC1` (relative stereo) [Example 2a, Cis-(1S,2S)-1-(2-chlorophenyl)-N^1-methyl-N^2-[3-(pyrrolidin-1-yl)propyl]-cyclohexane-1,2-diamine trihydrochloride], the values for the Ki on Sigma-2 and on Sigma-1 were 59.8 nM and 17.3 nM, respectively.
The like results for `CN[C@]1(c2ccccc2Cl)CCCC[C@H]1NCCCN1CCCC1` (relative stereo) [Example 2b, Trans-(1S,2R)-1-(2-chlorophenyl)-N^1-methyl-N^2-[3-(pyrrolidin-1-yl)propyl]-cyclohexane-1,2-diamine trihydrochloride] were, in that order, 305 nM and 37.2 nM.
The like results for `CN[C@]1(c2ccccc2Cl)CCCC[C@@H]1NCCCc1ccc(F)cc1` (relative stereo) [Example 3a, Cis-(1S,2S)-1-(2-chlorophenyl)-N^2-[3-(4-fluorophenyl)propyl]-N^1-methyl-cyclohexane-1,2-diamine dihydrochloride] were, in that order, 18 nM and 35.4 nM.
The like results for `CN[C@]1(c2ccccc2Cl)CCCC[C@H]1NCCCc1ccc(F)cc1` (relative stereo) [Example 3b, Trans-(1S,2R)-1-(2-chlorophenyl)-N^2-[3-(4-fluorophenyl)propyl]-N^1-methyl-cyclohexane-1,2-diamine dihydrochloride] were, in that order, 675 nM and 217 nM.
Take `CN[C@]1(c2ccccc2Cl)CCCC[C@@H]1NCCCc1ccccc1` (relative stereo) [Example 4a, Cis-(1S,2S)-1-(2-chlorophenyl)-N^1-methyl-N^2-(3-phenylpropyl)cyclohexane-1,2-diamine dihydrochloride]: the results for the Ki at Sigma-2 and at Sigma-1 were 15.5 nM and 97.2 nM, respectively.
For `CN[C@]1(c2ccccc2Cl)CCCC[C@H]1NCCCc1ccccc1` (relative stereo) [Example 4b, Trans-(1S,2R)-1-(2-chlorophenyl)-N^1-methyl-N^2-(3-phenylpropyl)cyclohexane-1,2-diamine dihydrochloride] the same measures were 426 nM and 697 nM.
For `CN[C@]1(c2ccccc2Cl)CCCC[C@@H]1NCCCN1CCN(C)CC1` (relative stereo) [Example 13a, Cis-(1S,2S)-1-(2-chlorophenyl)-N^1-methyl-N^2-(3-(4-methylpiperazin-1-yl)propyl)cyclohexane-1,2-diamine tetrahydrochloride] the same measures were 98 nM and 70 nM.
The like results for `CN[C@]1(c2ccccc2Cl)CCCC[C@H]1NCCCN1CCN(C)CC1` (relative stereo) [Example 13b, Trans-(1S,2R)-1-(2-chlorophenyl)-N^1-methyl-N^2-(3-(4-methylpiperazin-1-yl)propyl)cyclohexane-1,2-diamine tetrahydrochloride] were, in that order, 435 nM and 146 nM.

The record behind these values is patent publication US11007200B2, “Cycloalkyl-diamines for the treatment of pain” (MediSynergics, LLC, priority 2019, dated 2021).
